Reference: patent publication US12686854B2, “Method for enhancing secretory function of mesenchymal stem cells and application thereof” (SHANDONG UNIVERSITY, priority 2020, dated 2026)

Tests used:
[1] = system: PI3K-AKT pathway; assay: In vitro ovary culture with VCD injury, Western blot of p-AKT and AKT; assay type: cell-based; settings: PD4 mouse ovaries, 4 days in vitro culture, VCD 30 μM injury
Procedure: • S1. The concentrated conditioned medium was collected as described in Example 1. • S2. The solution for dissecting ovary containing 10% FBS and 1% penicillin-streptomycin was prepared in L15 medium. • S3. Ovarian culture preparation was performed. The medium of control group, VCD (30 μM) group, VCD+MSC-CM group and VCD+HA/MSC-CM group were prepared, and the embedded culture chamber was placed in 6-well plate containing 1.5 mL medium per well for 2 hours. • S4. The ovaries of postnatal day 4 (PD4) mice were isolated in freshly prepared dissecting solution under stereoscope. The surrounding tissues and ovarian capsule were gently peeled off, which should move quickly and not damage ovarian tissues. • S5. The obtained ovaries were washed three times with dissecting solution and transferred to an operation table as soon as possible. Before the ovaries were placed in the chambers of each group, the ovaries were washed three times with the corresponding medium of each group. After washing, they were placed in the middle of the culture chambers of each group and placed at intervals. The solution was changed on the second day. After 4 days of in vitro culture, the ovarian tissues were collected to extract protein. • S6. The changes of the expression of p-AKT and AKT protein were detected by Western blot.

[2] = system: germ cells in mouse ovaries; assay: In vitro ovary culture with VCD injury, DDX4 immunohistochemical staining of germ cells; assay type: cell-based; settings: 8 days in vitro culture

C1CC2OC2CC1C1CO1 (stereo not drawn) [VCD, 4-vinylcyclonhexene diepoxide]
expression level of p-AKT [1]: decreased significantly
ovarian volume ([2]; VCD 30 μM): decreased
number of germ cells (DDX4 staining) ([2]; VCD 30 μM injury): decreased significantly
